Here are results for 30 compounds from ChEMBL document CHEMBL1131475, “Discovery of ritonavir, a potent inhibitor of HIV protease with high oral bioavailability and clinical efficacy” (J Med Chem, 1998).

Data set [1] is described as follows: in vivo. The following applies: rat, plasma, po.
Data set [2] in a line: in vivo. The conditions noted are these: rat, plasma, po, 10 mg/kg.
Data set [3] is described as follows: in vivo. The following applies: rat, plasma, po. The source holds these as a separate data set.
A short description of data set [4]: in vivo. The following applies: rat, plasma, iv.
Data set [5] can be described thus: Oral bioavailability in rat. The data set is classed as ADME, organism-based. The conditions noted are these: in vivo.

The structures appear in SMILES notation.

By Tmax is commonly meant the time at which the peak concentration occurs. The Cmax is the peak of the concentration-time curve. Broadly, the AUC is concentration integrated over time. A higher AUC goes with high exposure. In general, half-life refers to the time in which the quantity being followed falls by half. The low end stands for rapid decline, the high end for slow decline. Broadly, the bioavailability is the share of a dose that reaches the circulation, judged against a reference dose that is usually intravenous. As to `CC(C)c1nc(COC(=O)NC(C(=O)N[C@@H](Cc2ccccc2)C[C@H](O)[C@H](Cc2ccccc2)NC(=O)OCc2cccnc2)C(C)C)co1` (stereo not given in full), in “in vivo [1]”, the Tmax is 12 min. The compound also had a Cmax in the data set “in vivo [2]” of 460 nM. In the data set “in vivo [3]”, this compound had an exposure (AUC) of 200 ng·h/mL. The half-life in the data set “in vivo [4]” was 19.8 min. This compound also returned a bioavailability in data set [5] of 5%.
In the same order, the values of `Cc1cccc(CN(C)C(=O)NC(C(=O)N[C@@H](Cc2ccccc2)[C@@H](O)C[C@H](Cc2ccccc2)NC(=O)OCc2cccnc2)C(C)C)n1` (stereo not given in full) are 15 min, 2420 nM, 950 ng·h/mL, 13.2 min and 16%.
For `COc1ccc(CN(C)C(=O)NC(C(=O)N[C@@H](Cc2ccccc2)C[C@H](O)[C@H](Cc2ccccc2)NC(=O)OCc2cccnc2)C(C)C)cn1` (stereo not given in full), in that order: 6 min, 1750 nM, 320 ng·h/mL, 13.2 min and 10%.
In the same order, the values of `COCc1nc(COC(=O)NC(C(=O)N[C@@H](Cc2ccccc2)[C@@H](O)C[C@H](Cc2ccccc2)NC(=O)OCc2cccnc2)C(C)C)cs1` (stereo not given in full) are 13.8 min, 1790 nM, 630 ng·h/mL, 16.2 min and 10%.
Consider `CC(C)C(NC(=O)N(C)Cc1csc(C(C)(C)C)n1)C(=O)N[C@@H](Cc1ccccc1)[C@@H](O)C[C@H](Cc1ccccc1)NC(=O)OCc1cccnc1` (stereo not given in full), for which, in “in vivo [1]”, the Tmax amounted to 19.8 min. The compound further displayed a Cmax in “in vivo [2]” of 830 nM. In addition, the AUC in “in vivo [3]” stood at 510 ng·h/mL. This compound also had a half-life in the data set “in vivo [4]” of 21.6 min. The bioavailability in data set [5] came out at 9.3%.
For `CC(C)C(NC(=O)N(C)Cc1csc(C2CCC2)n1)C(=O)N[C@@H](Cc1ccccc1)C[C@H](O)[C@H](Cc1ccccc1)NC(=O)OCc1cncs1` (stereo not given in full), in that order: 72 min, 2480 nM, 6290 ng·h/mL, 24 min and 60%.
For `CC(C)c1ncc(COC(=O)NC(C(=O)N[C@@H](Cc2ccccc2)[C@@H](O)C[C@H](Cc2ccccc2)NC(=O)OCc2cccnc2)C(C)C)s1` (stereo not given in full), in that order: 12 min, 100 nM, 30 ng·h/mL, 37.2 min and 0.8%.
For `CC(C)c1nc(CN(C)C(=O)NC(C(=O)N[C@@H](Cc2ccccc2)C[C@H](O)[C@H](Cc2ccccc2)NC(=O)OCc2cnco2)C(C)C)co1` (stereo not given in full), the Tmax in the data set “in vivo [1]” stood at 9 min. The Cmax in “in vivo [2]” was found to be 2050 nM. Besides, the AUC in “in vivo [3]” was 1850 ng·h/mL. The half-life in “in vivo [4]” was 15.6 min. Moreover, in data set [5], the bioavailability was 35%.
In the same order, the values of `COc1ccc(CN(C)C(=O)NC(C(=O)N[C@@H](Cc2ccccc2)[C@@H](O)C[C@H](Cc2ccccc2)NC(=O)OCc2cccnc2)C(C)C)cn1` (stereo not given in full) are 6 min, 1830 nM, 310 ng·h/mL, 19.2 min and 7.9%.
For `COc1ccc(COC(=O)NC(C(=O)N[C@@H](Cc2ccccc2)[C@@H](O)C[C@H](Cc2ccccc2)NC(=O)OCc2cccnc2)C(C)C)cn1` (stereo not given in full), in that order: 9 min, 560 nM, 160 ng·h/mL, 25.8 min and 3.3%.
Regarding `CCc1cccc(COC(=O)NC(C(=O)N[C@@H](Cc2ccccc2)[C@@H](O)C[C@H](Cc2ccccc2)NC(=O)OCc2cccnc2)C(C)C)n1` (stereo not given in full), the Tmax in the data set “in vivo [1]” was found to be 15 min. The compound also displayed a Cmax in “in vivo [2]” of 1260 nM. This compound also had an AUC in “in vivo [3]” of 810 ng·h/mL. This compound showed a half-life in the data set “in vivo [4]” of 44.4 min. Also, in data set [5], the bioavailability stood at 16%.
For `Cc1cncc(COC(=O)NC(C(=O)N[C@@H](Cc2ccccc2)[C@@H](O)C[C@H](Cc2ccccc2)NC(=O)OCc2cccnc2)C(C)C)c1` (stereo not given in full), in that order: 18 min, 480 nM, 210 ng·h/mL, 16.8 min and 5.9%.
For `Cc1cccc(COC(=O)NC(C(=O)N[C@@H](Cc2ccccc2)[C@@H](O)C[C@H](Cc2ccccc2)NC(=O)OCc2cccnc2)C(C)C)n1` (stereo not given in full), in that order: 19.8 min, 1150 nM, 610 ng·h/mL, 44.4 min and 7.5%.
On to `Cc1cccc(COC(=O)NC(C(=O)N[C@@H](Cc2ccccc2)C[C@H](O)[C@H](Cc2ccccc2)NC(=O)OCc2cccnc2)C(C)C)n1` (stereo not given in full), for which the Tmax in the data set “in vivo [1]” was found to be 6 min. In “in vivo [2]”, the Cmax is 1740 nM. In “in vivo [3]”, this compound gave an AUC of 900 ng·h/mL. Besides, in the data set “in vivo [4]”, the half-life was 117 min. Moreover, the bioavailability in data set [5] was determined as 16%.
For `CC(NC(=O)N(C)Cc1coc(C(C)C)n1)C(=O)N[C@@H](Cc1ccccc1)C[C@H](O)[C@H](Cc1ccccc1)NC(=O)OCc1cncs1` (stereo not given in full), the Tmax in “in vivo [1]” came out at 15 min. For the same compound, in the data set “in vivo [2]”, the Cmax amounted to 3600 nM. The compound further came in with an AUC in the data set “in vivo [3]” of 2860 ng·h/mL. This compound also showed a half-life in the data set “in vivo [4]” of 240 min. The same compound displayed a bioavailability in data set [5] of 23%.
In the same order, the values of `Cc1ccc(COC(=O)NC(C(=O)N[C@@H](Cc2ccccc2)[C@@H](O)C[C@H](Cc2ccccc2)NC(=O)OCc2cccnc2)C(C)C)cn1` (stereo not given in full) are 6 min, 450 nM, 240 ng·h/mL, 34.2 min and 6.3%.
In the same order, the values of `COc1cncc(COC(=O)NC(C(=O)N[C@@H](Cc2ccccc2)C[C@H](O)[C@H](Cc2ccccc2)NC(=O)OCc2cccnc2)C(C)C)c1` (stereo not given in full) are 6 min, 200 nM, 30 ng·h/mL, 48 min and 0.9%.
For `CCc1nc(CN(C)C(=O)NC(C(=O)N[C@@H](Cc2ccccc2)C[C@H](O)[C@H](Cc2ccccc2)NC(=O)OCc2cncs2)C(C)C)cs1` (stereo not given in full), in that order: 72 min, 6170 nM, 14200 ng·h/mL, 48 min and 70%.
As to `CC(C)c1nc(CN(C)C(=O)NC(C(=O)N[C@@H](Cc2ccccc2)C[C@H](O)[C@H](Cc2ccccc2)NC(=O)OCc2cnco2)C(C)C)cs1` (stereo not given in full), in “in vivo [1]”, the Tmax came out at 34.8 min. The compound also registered a Cmax in the data set “in vivo [2]” of 1590 nM. The compound also came in with an AUC in “in vivo [3]” of 2650 ng·h/mL. In the data set “in vivo [4]”, the half-life was 33.6 min. The bioavailability in data set [5] was determined as 23%.
In the same order, the values of `CC(NC(=O)N(C)Cc1csc(C(C)C)n1)C(=O)N[C@@H](Cc1ccccc1)C[C@H](O)[C@H](Cc1ccccc1)NC(=O)OCc1cncs1` (stereo not given in full) are 30 min, 1680 nM, 1600 ng·h/mL, 54 min and 31%.
For `Cc1ncsc1CCOC(=O)NC(C(=O)N[C@@H](Cc1ccccc1)[C@@H](O)C[C@H](Cc1ccccc1)NC(=O)OCc1cccnc1)C(C)C` (stereo not given in full), in that order: 27 min, 410 nM, 360 ng·h/mL, 27 min and 9.2%.
For `CC(C)c1nc(CN(C)C(=O)NC(C(=O)N[C@@H](Cc2ccccc2)[C@@H](O)C[C@H](Cc2ccccc2)NC(=O)OCc2cccnc2)C(C)C)cs1` (stereo not given in full), in that order: 15 min, 1650 nM, 950 ng·h/mL, 45 min and 24%.
Turning to `CCc1cccc(CN(C)C(=O)NC(C(=O)N[C@@H](Cc2ccccc2)[C@@H](O)C[C@H](Cc2ccccc2)NC(=O)OCc2cccnc2)C(C)C)n1` (stereo not given in full), the Tmax in the data set “in vivo [1]” was found to be 9 min. The concentration in “in vivo [2]” peaked (Cmax) at 1530 nM. For the same compound, in the data set “in vivo [3]”, the AUC came to 730 ng·h/mL. In “in vivo [4]”, this compound had a half-life of 31.2 min. The compound further displayed a bioavailability in data set [5] of 23%.
For `Cc1ccc(CN(C)C(=O)NC(C(=O)N[C@@H](Cc2ccccc2)C[C@H](O)[C@H](Cc2ccccc2)NC(=O)OCc2cccnc2)C(C)C)cn1` (stereo not given in full), in that order: 12 min, 310 nM, 60 ng·h/mL, 21 min and 2.1%.
For `Cc1nc(CN(C)C(=O)NC(C(=O)N[C@@H](Cc2ccccc2)C[C@H](O)[C@H](Cc2ccccc2)NC(=O)OCc2cccnc2)C(C)C)cs1` (stereo not given in full), the Tmax in “in vivo [1]” was determined as 9 min. Also, the Cmax in “in vivo [2]” turned out to be 2100 nM. In the data set “in vivo [3]”, this compound yielded an AUC of 1060 ng·h/mL. In addition, the half-life in “in vivo [4]” is 43.2 min. In addition, in data set [5], the bioavailability turned out to be 26%.
For `CCc1nc(CN(C)C(=O)NC(C(=O)N[C@@H](Cc2ccccc2)C[C@H](O)[C@H](Cc2ccccc2)NC(=O)OCc2cncs2)C(C)C)co1` (stereo not given in full), in that order: 19.8 min, 8010 nM, 8910 ng·h/mL, 120 min and 57%.
In the same order, the values of `CCc1nc(CN(C)C(=O)NC(C(=O)N[C@@H](Cc2ccccc2)[C@@H](O)C[C@H](Cc2ccccc2)NC(=O)OCc2cccnc2)C(C)C)cs1` (stereo not given in full) are 12 min, 1460 nM, 870 ng·h/mL, 44.4 min and 20%.
In the same order, the values of `CC(C)C(NC(=O)OCc1cncc(N)c1)C(=O)N[C@@H](Cc1ccccc1)C[C@H](O)[C@H](Cc1ccccc1)NC(=O)OCc1cccnc1` (stereo not given in full) are 6 min, 140 nM, 30 ng·h/mL, 30 min and 0.3%.
In the case of `Cc1nc(CN(C)C(=O)NC(C(=O)N[C@@H](Cc2ccccc2)[C@@H](O)C[C@H](Cc2ccccc2)NC(=O)OCc2cccnc2)C(C)C)cs1` (stereo not given in full), in “in vivo [1]”, the Tmax amounted to 15 min. In “in vivo [2]”, the Cmax turned out to be 2010 nM. Moreover, in the data set “in vivo [3]”, the AUC is 1080 ng·h/mL. In the data set “in vivo [4]”, the half-life is 89.4 min. In addition, the bioavailability in data set [5] was 15%.
In the same order, the values of `COc1cncc(CN(C)C(=O)NC(C(=O)N[C@@H](Cc2ccccc2)[C@@H](O)C[C@H](Cc2ccccc2)NC(=O)OCc2cccnc2)C(C)C)c1` (stereo not given in full) are 6 min, 440 nM, 50 ng·h/mL, 10.2 min and 0.8%.
